From ChEMBL document CHEMBL3868640, “1,2,4-Triazolidine-3-thiones as Narrow Spectrum Antibiotics against Multidrug-Resistant Acinetobacter baumannii” (ACS Med Chem Lett, 2017)
In brackets after ≈: the same amount, converted by molar mass.

Legend:
Acinetobacter baumannii [1] = assay: Antimicrobial activity against extensively drug-resistant Acinetobacter baumannii AB5075 after 16 hrs by microbroth dilution method; type: functional; details: AB5075, 16 h
Acinetobacter baumannii [2] = assay: Antimicrobial activity against multi drug-resistant Acinetobacter baumannii AB4878 after 16 hrs by microbroth dilution method; type: functional; details: AB4878, 16 h
Acinetobacter baumannii [3] = assay: Antimicrobial activity against multi drug-resistant Acinetobacter baumannii AB3785 after 16 hrs by microbroth dilution method; type: functional; details: AB3785, 16 h
Acinetobacter baumannii [4] = assay: Antimicrobial activity against multi drug-resistant Acinetobacter baumannii AB3806 after 16 hrs by microbroth dilution method; type: functional; details: AB3806, 16 h
Acinetobacter baumannii [5] = assay: Antimicrobial activity against multi drug-resistant Acinetobacter baumannii AB4957 after 16 hrs by microbroth dilution method; type: functional; details: AB4957, 16 h
Acinetobacter baumannii [6] = assay: Antimicrobial activity against multi drug-resistant Acinetobacter baumannii BAA1605 after 16 hrs by microbroth dilution method; type: functional; details: BAA1605, 16 h
Acinetobacter baumannii [7] = assay: Antimicrobial activity against multi drug-resistant Acinetobacter baumannii AB3638 after 16 hrs by microbroth dilution method; type: functional; details: AB3638, 16 h
Acinetobacter baumannii [8] = assay: Bactericidal activity against extensively drug-resistant Acinetobacter baumannii AB5075 assessed as log reduction in bacterial count at 4 to 16 ug/ml measured up to 24 hrs by time kill assay; type: functional
Acinetobacter baumannii [9] = assay: Antimicrobial activity against extensively drug-resistant Acinetobacter baumannii AB5075 in 0.02% linoleic acid supplemented media after 16 hrs by microbroth dilution method; type: functional; details: AB5075, 16 h
Klebsiella pneumoniae = assay: Antimicrobial activity against Klebsiella pneumoniae after 16 hrs by microbroth dilution method; type: functional
Escherichia coli = assay: Antimicrobial activity against Escherichia coli after 16 hrs by microbroth dilution method; type: functional
Pseudomonas aeruginosa = assay: Antimicrobial activity against Pseudomonas aeruginosa after 16 hrs by microbroth dilution method; type: functional
Staphylococcus aureus = assay: Antimicrobial activity against methicillin-resistant Staphylococcus aureus after 16 hrs by microbroth dilution method; type: functional
[10] = Drug degradation in cation adjusted Mueller-Hinton broth after 16 hrs by liquid chromatography; type: physicochemical
[11] = Half life in cation adjusted Mueller-Hinton broth by liquid chromatography; type: physicochemical
[12] = Hemolytic activity against sheep RBC up to 512 ug/ml after 1 hr by UV spectrometric analysis; type: ADME, cell-based, Ovis aries; details: erythrocyte
Acinetobacter baumannii [13] = assay: Antibacterial activity against Acinetobacter baumannii AB5075 infected in Galleria mellonella assessed as protection against bacterial infection by measuring survival of host at 50 mg/kg after 6 days relative to control; type: functional; details: AB5075, 144 h
Acinetobacter baumannii [14] = assay: Antibacterial activity against Acinetobacter baumannii AB5075 infected in Galleria mellonella assessed as protection against bacterial infection by measuring survival of host at 100 mg/kg after 6 days relative to control; type: functional; details: AB5075, 144 h
Acinetobacter baumannii [15] = assay: Antibacterial activity against Acinetobacter baumannii AB5075 infected in Galleria mellonella assessed as worm survival at 50 mg/kg after 3 days relative to control; type: functional; details: AB5075, 72 h
Acinetobacter baumannii [16] = assay: Antibacterial activity against Acinetobacter baumannii AB5075 infected in Galleria mellonella assessed as worm survival at 100 mg/kg after 3 days relative to control; type: functional; details: AB5075, 72 h

SMILES	MIC (Acinetobacter baumannii [1])	also measured
SC1=NC2(CCCCC2)NN1c1ccccc1	8 µg/mL (≈ 32.3 µM)	
CCC1(CC)NC(=S)N(c2ccccc2)N1	8 µg/mL (≈ 34 µM)	
CC1(C)NC(=S)N(c2ccccc2)N1	8 µg/mL (≈ 38.6 µM)	
CC(C)C1(C)NC(=S)N(c2ccccc2)N1 (stereo unspecified)	8 µg/mL (≈ 34 µM)	
CCCCN1N(c2ccc(Cl)cc2)C(=S)NC1(C)C	> 128 µg/mL	
CCC1NC(=S)N(c2ccccc2)N1 (stereo unspecified)	> 128 µg/mL	
CCCC1(CC)NC(=S)N(c2ccccc2)N1 (stereo unspecified)	32 µg/mL (≈ 128 µM)	
CCC1(CC)NC(=S)N(c2ccccc2F)N1	32 µg/mL (≈ 126 µM)	
CCC1(CC)NC(=S)N(c2cccc(Cl)c2)N1	8 µg/mL (≈ 29.7 µM)	
CCC1(CC)NC(=S)N(c2ccc(F)cc2)N1	4 µg/mL (≈ 15.8 µM)	
CCCC1NC(=S)N(c2ccccc2)N1 (stereo unspecified)	64 µg/mL (≈ 289 µM)	
CC1(C)NNC(=S)N1c1ccc(Cl)cc1	> 128 µg/mL	
CC1NC(=S)N(c2ccccc2)N1 (stereo unspecified)	> 128 µg/mL	
CC1(c2ccccc2)NC(=S)N(c2ccccc2)N1 (stereo unspecified)	> 128 µg/mL	
CC1(C)NC(=S)N(c2ccc(Cl)cc2)N1		MIC (Acinetobacter baumannii [2]): 2 µg/mL (≈ 8.27 µM); MIC (Acinetobacter baumannii [3]): 1 µg/mL (≈ 4.14 µM); MIC (Acinetobacter baumannii [4]): 1 µg/mL (≈ 4.14 µM); MIC (Acinetobacter baumannii [5]): 2 µg/mL (≈ 8.27 µM); MIC (Acinetobacter baumannii [6]): 2 µg/mL (≈ 8.27 µM); MIC (Acinetobacter baumannii [7]): 1 µg/mL (≈ 4.14 µM); log reduction (Acinetobacter baumannii [8]): > 6 log10 CFU/mL; MIC (Acinetobacter baumannii [9]): > 128 µg/mL; MIC (Klebsiella pneumoniae): ≥ 128 µg/mL; MIC (Escherichia coli): ≥ 128 µg/mL; MIC (Pseudomonas aeruginosa): ≥ 128 µg/mL; MIC (Staphylococcus aureus): ≥ 128 µg/mL; Stability [10]: Unstable; half-life [11]: 2.5 h; Activity [12]: Non-Toxic; survival at 50 mg/kg (Acinetobacter baumannii [13]): 22%; survival at 100 mg/kg (Acinetobacter baumannii [14]): 32%; survival at 50 mg/kg (Acinetobacter baumannii [15]): 42.5%; survival at 100 mg/kg (Acinetobacter baumannii [16]): 45%
S=C1NC2(CCCC2)NN1c1ccccc1	8 µg/mL (≈ 34.3 µM)	
CCC1(C(C)C)NC(=S)N(c2ccccc2)N1 (stereo unspecified)	32 µg/mL (≈ 128 µM)	
CCC1(CC)NC(=S)N(c2ccc(C#N)cc2)N1	> 128 µg/mL	

SMILES	MIC (Acinetobacter baumannii [1])	also measured
CCC1(CC)NC(=S)N(c2ccccc2Cl)N1	128 µg/mL (≈ 474 µM)	
CCC1(CC)NC(=S)N(c2ccc(C(C)C)cc2)N1	> 128 µg/mL	
CCCC1(CCC)NC(=S)N(c2ccccc2)N1	32 µg/mL (≈ 121 µM)	
CCC1(CC)NC(=S)N(c2ccc(Cl)cc2)N1	2 µg/mL (≈ 7.41 µM)	MIC (Acinetobacter baumannii [2]): 4 µg/mL (≈ 14.8 µM); MIC (Acinetobacter baumannii [3]): 4 µg/mL (≈ 14.8 µM); MIC (Acinetobacter baumannii [4]): 4 µg/mL (≈ 14.8 µM); MIC (Acinetobacter baumannii [5]): 4 µg/mL (≈ 14.8 µM); MIC (Acinetobacter baumannii [6]): 4 µg/mL (≈ 14.8 µM); MIC (Acinetobacter baumannii [7]): 4 µg/mL (≈ 14.8 µM)
CCC1(CC)NC(=S)N(c2cc(F)cc(F)c2)N1	> 128 µg/mL	
CCC1(CC)NC(=S)N(c2cccc(F)c2)N1	8 µg/mL (≈ 31.6 µM)	
CSC1=NC(C)(C)NN1c1ccc(Cl)cc1	> 128 µg/mL	
S=C1NC(c2ccccc2)NN1c1ccccc1 (stereo unspecified)	64 µg/mL (≈ 251 µM)	
CCC1(CC)NC(=S)N(c2ccc(I)cc2)N1	8 µg/mL (≈ 22.1 µM)	
CCC1(CC)NC(=S)N(c2ccc(C(F)(F)F)cc2)N1	> 128 µg/mL	
CCC1(C)NC(=S)N(c2ccccc2)N1 (stereo unspecified)	8 µg/mL (≈ 36.1 µM)	MIC (Acinetobacter baumannii [2]): 8 µg/mL (≈ 36.1 µM); MIC (Acinetobacter baumannii [3]): 4 µg/mL (≈ 18.1 µM); MIC (Acinetobacter baumannii [4]): 4 µg/mL (≈ 18.1 µM); MIC (Acinetobacter baumannii [5]): 8 µg/mL (≈ 36.1 µM); MIC (Acinetobacter baumannii [6]): 8 µg/mL (≈ 36.1 µM); MIC (Acinetobacter baumannii [7]): 4 µg/mL (≈ 18.1 µM)
CCC1(CC)NC(=S)N(c2ccc([N+](=O)[O-])cc2)N1	> 128 µg/mL	
CN1N(c2ccc(Cl)cc2)C(=S)NC1(C)C	> 128 µg/mL	
CCC1(CC)NC(=S)N(c2ccc(Cl)c(Cl)c2)N1	> 128 µg/mL	
CCCC1(C)NC(=S)N(c2ccccc2)N1 (stereo unspecified)	16 µg/mL (≈ 68 µM)	
CCC1(CC)NC(=S)N(c2ccc(F)c(Cl)c2)N1	32 µg/mL (≈ 111 µM)	
CCC1(CC)NC(=S)N(c2ccc(Br)cc2)N1	4 µg/mL (≈ 12.7 µM)	
CC1(C)N=C(SCc2ccccc2)N(c2ccc(Cl)cc2)N1	> 128 µg/mL	
